Measured values reported in patent US7939520B2, “Aminoazacyclyl-3-sulfonylindazoles as 5-hydroxytryptamine-6 ligands” (Wyeth LLC, priority 2007, dated 2011).

Molecular target: T1, human cloned 5-HT6 receptors (Homo sapiens, UniProt P50406)
T1 construct: expressed in transfected cells; host or cells: HeLa cells
Assay: 5-HT6 binding affinity, [3H]-LSD displacement on membranes of Hela cells
Conditions: not given

T1 sequence (P50406 whole entry): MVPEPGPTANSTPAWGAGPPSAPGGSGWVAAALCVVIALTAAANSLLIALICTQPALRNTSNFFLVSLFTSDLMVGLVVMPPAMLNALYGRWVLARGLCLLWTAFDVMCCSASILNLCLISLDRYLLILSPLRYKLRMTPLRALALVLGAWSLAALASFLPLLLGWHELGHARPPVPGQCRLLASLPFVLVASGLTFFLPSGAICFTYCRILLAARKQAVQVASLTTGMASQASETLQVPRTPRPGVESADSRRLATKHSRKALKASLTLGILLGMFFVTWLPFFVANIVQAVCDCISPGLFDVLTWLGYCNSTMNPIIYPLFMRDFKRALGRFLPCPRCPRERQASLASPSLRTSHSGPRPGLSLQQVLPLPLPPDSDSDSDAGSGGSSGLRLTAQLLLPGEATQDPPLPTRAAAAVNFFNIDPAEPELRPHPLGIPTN

SMILES | Ki [nM]
CC(C)Cn1nc2ccc(N3CC[C@H](N)C3)cc2c1S(=O)(=O)c1cccc2ccccc12 [Example 20] | 75.8
Cn1nc2ccc(N3CC[C@H](N)C3)cc2c1S(=O)(=O)c1cccc2ccccc12 [Example 18] | 54.3
CC(C)n1nc2ccc(N3CC[C@H](N)C3)cc2c1S(=O)(=O)c1cccc2ccccc12 [Example 19] | 48.7

Same assay, conditions: [3H]-LSD 3.0 nM, Hela cell membranes, 120 min, room temperature; read-out: 5-HT6 Binding Ki

Ki [nM] | SMILES
3.5 | NC1CN(c2ccc3[nH]nc(S(=O)(=O)c4cccc5ccccc45)c3c2)C1 [Example 8, 1-[3-(1-naphthylsulfonyl)-1H-indazol-5-yl]azetidin-3-amine]
146 | N[C@@H]1CCN(c2ccc3[nH]nc(S(=O)(=O)c4ccccc4)c3c2)C1 [Example 11, (3R)-1-(3-phenylsulfonyl-1H-indazol-5-yl)pyrrolidin-3-amine]
1.1 | CN(C)[C@@H]1CCN(c2ccc3[nH]nc(S(=O)(=O)c4cccc5ccccc45)c3c2)C1 [Example 12, (R)—N,N-dimethyl-1-(3-(naphthalen-1-ylsulfonyl)-1H-indazol-5-yl)pyrrolidin-3-amine]
13.7 | CC(C)n1nc(S(=O)(=O)c2cccc3ccccc23)c2cc(N3CC[C@@H](N)C3)ccc21 [Example 16, (R)-1-(1-isopropyl-3-(naphthalen-1-ylsulfonyl)-1H-indazol-5-yl)pyrrolidin-3-amine]
50 | CN(C)[C@H]1CCN(c2ccc3[nH]nc(S(=O)(=O)c4cccc5ccccc45)c3c2)C1 [Example 13, (S)—N,N-dimethyl-1-(3-(naphthalen-1-ylsulfonyl)-1H-indazol-5-yl)pyrrolidin-3-amine]
1.1 | NC1CN(c2ccc3[nH]nc(S(=O)(=O)c4ccccc4)c3c2)C1 [Example 14, 1-(3-(phenylsulfonyl)-1H-indazol-5-yl)azetidin-3-amine]
131 | N[C@H]1CCN(c2ccc3[nH]nc(S(=O)(=O)c4ccccc4)c3c2)C1 [Example 10, (3S)-1-(3-phenylsulfonyl-1H-indazol-5-yl)pyrrolidin-3-amine]

Same assay, conditions: read-out: 5-HT6 Binding Ki

SMILES | Ki [nM]
Cn1nc(S(=O)(=O)c2cccc3ccccc23)c2cc(N3CC[C@@H](N)C3)ccc21 [Example 15, (3R)-1-[1-methyl-3-(naphthalen-1-ylsulfonyl)-1H-indazol-5-yl]pyrrolidin-3-amine] | 21.1
CC(C)Cn1nc(S(=O)(=O)c2cccc3ccccc23)c2cc(N3CC[C@@H](N)C3)ccc21 [Example 17, (R)-1-(1-isobutyl-3-(naphthalen-1-ylsulfonyl)-1H-indazol-5-yl)pyrrolidin-3-amine] | 36.9
NC1CCN(c2ccc3[nH]nc(S(=O)(=O)c4cccc(Cl)c4)c3c2)CC1 [Example 5, 1-{3-[(3-chlorophenyl)sulfonyl]-1H-indazol-5-yl}piperidin-4-amine] | 8
